Earlier results as cited in patent US20220378710A1, “Therapeutic Gas Microfoam for Skin Recovery” (Truly Oxygen, Inc., priority 2018, published 2022).

Details: topical co-administration of lipids, mammals

SMILES	increase in absorption and/or bioavailability
CCCCCc1cc(O)c2c(c1)OC(C)(C)[C@@H]1CCC(C)=C[C@@H]21 [THC, Δ^9-tetrahydrocannabinol]	more than 2.5 fold
C=C(C)[C@@H]1CCC(C)=C[C@H]1c1c(O)cc(CCCCC)cc1O [CBD, cannabidiol]	~3 fold
